Where two headings read alike, the source gives them in different places.
Columns and labels:
[1] = tested on: H520 squamous cell carcinoma; experiment: Cell proliferation assay, H520 (MTT); type: cell-based; conditions: for IC50: Tosylate
Experimental: (§1) In vitro experiments were conducted on four cancer cell lines: the A549 adenocarcinoma cell line, the H520 squamous cell carcinoma the H82 small cell lung carcinoma and Calu 3 lung adenocarcinoma. The A549 tumor cells, were plated at a density of 1.5×10^4 cells per mL and let to adhere on 96-well microplates in F12K cell culture medium enriched with 10% fetal calf serum (FCS). The H520, H82 and Calu 3 tumor cells were plated at a density of 5×10^4 cells per mL in RPMI+10% FCS. After 24 h in culture, the medium was changed and cells were exposed to ASM-024 at concentrations ranging from 10^−7M to 10^−3M (FIGS. 1A-1C). After 3 and 6 days in culture, cell growth was quantified using the MTT colorimetric assay (M2128, Sigma) at 575-690 nm or the Cell Titer fluorescence assay (G8080, Promega) at 560/590 nm.
(§2) In an another set of experiments, a series of 16 other homopiperazinium compounds, in addition to ASM-024, were tested for their anti-proliferative effect on the four tumor cell lines described above after up to 6 days in culture at concentrations of 10^-7M to 10^-3M. (FIGS. 4A-4E) Cell growth was quantified using the MTT colorimetric assay for the A-549, H520 and Calu 3 cell lines and the CellTiter Fluorescence assay.for the H82 tumor cell line These are established method of determining viable cell number in proliferation studies.

MCF7 = experiment: Anti-proliferative MTT assay, MCF7; type: cell-based; conditions: Homo sapiens
Experimental: (§3) The effect of ASM-024 on the growth of MCF7, SK-BR-3, MDA-MB-231, BT-474 (mammary adenocarcinomas), SK-OV/3 (ovary adenocarcinoma), PC3 (prostate adenocarcinoma) SK-MEL-28(skin melanoma) and C6 (tumor cell glioma) was evaluated. Cells were cultured in RPMI medium and incubated with different concentrations of ASM-024. Cell proliferation was measured on days 3 and 6 by the MTT colorimetric assay. Absorbance at 576-690 nm was analyzed with a microplate reader and expressed as optical density (OD) and as a percentage of the value of corresponding untreated cells. The IC50 was determined as the drug concentration required to inhibit cell growth by 50% from a plot of percent cell viability from control untreated cells versus treated cells.

[2] = tested on: Calu 3 lung adenocarcinoma; experiment: Cell proliferation assay, Calu 3 (MTT); type: cell-based; conditions: Homo sapiens
Experimental: as §1, §2

C6 = experiment: Anti-proliferative MTT assay, C6; type: cell-based; conditions: Rattus norvegicus
Experimental: as §3

[3] = tested on: A549 human lung carcinoma cells; experiment: In vivo antitumor assay, A549 xenograft in Balb/c nude mice (Example 29); conditions: day 49; ASM-024 45 mg/kg s.c. daily day 14-38; taxol 10 mg/kg i.p. days 21, 28, 35; cisplatin 2.5 mg/kg i.p. days 28, 35
Experimental: For the in vivo antitumor assay, A549 human lung carcinoma cells (3.5×106) in 50% F12K medium (Matrigel) were implanted subcutaneously in the flank of Balb/c nude mice (nu/nu, Charles River) and allowed to grow for 14 days. ASM-024 was administered daily by subcutaneous delivery at the dose of 45 mg/kg from day 14 to day 38 post cell inoculation. Taxol was administrated intraperitoneally at the dose of 10 mg/kg on days 21, 28 and 35. Cisplatin was administrated intraperioneally at the dose of 2.5 mg/kg on days 28 and 35. From day 14 to day 49, tumor length and width were measured once or twice a week with a caliper and tumor volume calculated according to the formula Volume=(width2×length)/2.

SK-BR-3 = experiment: Anti-proliferative MTT assay, SK-BR-3; type: cell-based; conditions: Homo sapiens
Experimental: as §3

A549 lung adenocarcinoma = experiment: In vitro combination treatment with cisplatin or taxol, A549 (MTT); type: cell-based, human; conditions: ASM-024 alone, 3 days of drug treatment
Experimental: The concomitant effect of ASM-024 and cisplatin or taxol on the proliferation of A549 lung adenocarcinoma and MCF7 breast cancer adenocarcinoma cells was assessed in vitro.
A549 cells (3.0×10^3cells/well) were first cultured with 10% FBS in F12K media and MCF7 cells (10×10^3 cells/well) with 10% FBS in EMEM media for 24 hours to allow cells to adhere to the plate at 37° C. in a humidified incubator with 5% CO2. The next day, the media was replaced in medium containing appropriate drug concentrations […] for an additional 72 hours. Cell viability was quantified using the MTT colorimetric assay (M2128, Sigma) at 575-690 nm.

[4] = tested on: A549 adenocarcinoma cell line; experiment: Cell proliferation assay, A549 (MTT); conditions: for IC50: Tosylate
Experimental: as §1, §2

SK-MEL-28 = experiment: Anti-proliferative MTT assay, SK-MEL-28; type: cell-based; conditions: Homo sapiens
Experimental: as §3

A549 cells = experiment: In vivo antitumor assay, A549 tumor cell-bearing nu/nu mice (Example 27); conditions: 30 mg/kg daily, subcutaneous or intraperitoneal
Experimental: For the in vivo antitumor assay, nu/nu mice were inoculated subcutaneously in the flank of mice with 2×10^6 A549 cells in sterile PBS mixed with 50% matrigel. Two days later ASM-024 was administered daily by subcutaneous (at a site close to the tumor) or intraperitoneal delivery at the dose of 30 mg/kg for up to 50 days. When palpable, tumor length and width were measured with a caliper and tumor volume calculated according to the formula Volume=(width2×length)/2.
FIGS. 6A, 6B, 7A and 7B are illustrating the antitumor effect of ASM-024 in A549 tumor cell-bearing mice after 51 days. The antitumor effect of each delivery mode was evaluated by measuring tumor volume (FIGS. 6A and 6B) and weight (FIGS. 7A and 7B). Values are presented as the mean±standard deviation.

[5] = tested on: H82 small cell lung carcinoma; experiment: Cell proliferation assay, H82 (CellTiter fluorescence); type: cell-based; conditions: for IC50: Homo sapiens
Experimental: as §1, §2

PC3 = experiment: Anti-proliferative MTT assay, PC3; type: cell-based; conditions: Homo sapiens
Experimental: as §3

CC[N+]1(CC)CCCN(c2ccccc2)CC1.Cc1ccc(S(=O)(=O)[O-])cc1 [ASM-024, 1,1-Diethyl-4-phenyl-homopiperazinium Tosylate]
cell proliferation / cell growth inhibition (in words) ([1]; H520, day 3 and day 6, text on figures): dose-dependent decrease in cell proliferation
IC50 ([1]; H520, day 3 in culture, read-out: IC50 Day 3): 468 ± 287 µM
IC50 ([1]; H520, day 6 in culture, read-out: IC50 Day 6): 257 ± 257 µM
IC50 (MCF7; 72 h, MCF7, day 3, read-out: IC50 Day 3): 470 ± 364 µM
IC50 (MCF7; 144 h, MCF7, day 6, read-out: IC50 Day 6): 209 ± 42 µM
IC50 ([2]; 72 h, Calu 3, day 3 in culture, read-out: IC50 Day 3): 685 ± 320 µM
IC50 ([2]; 144 h, Calu 3, day 6 in culture, read-out: IC50 Day 6): 192 ± 217 µM
IC50 (C6; 72 h, C6, day 3, read-out: IC50 Day 3): 353 ± 52 µM
IC50 (C6; 144 h, C6, day 6, read-out: IC50 Day 6): 186 ± 27 µM
A549 human carcinoma tumor growth (tumor volume) [3]: decrease in A549 human carcinoma tumor growth
IC50 (SK-BR-3; 72 h, SK-BR-3, day 3, read-out: IC50 Day 3): > 1000 µM
IC50 (SK-BR-3; 144 h, SK-BR-3, day 6, read-out: IC50 Day 6): 197 ± 67 µM
A549 cell growth inhibition (A549 lung adenocarcinoma): dose-dependent growth inhibition of cell proliferation
cell proliferation / cell growth inhibition (in words) ([4]; A549, day 3 and day 6, text on figures): dose-dependent decrease in cell proliferation
IC50 ([4]; read-out: IC50 Day 3, A549, day 3 in culture): 56 ± 20 µM
IC50 ([4]; read-out: IC50 Day 6, A549, day 6 in culture): 59 ± 21 µM
IC50 (SK-MEL-28; 72 h, SK-MEL-28, day 3, read-out: IC50 Day 3): > 800 µM
IC50 (SK-MEL-28; 144 h, SK-MEL-28, day 6, read-out: IC50 Day 6): 259 ± 63 µM
Tumor growth, as determined by mean tumor volumes (A549 cells; 51 days of observation, vs control mice): reduced
Mean tumor weight after surgical resection (A549 cells; after 51 days, vs vehicle-treated control mice): reduction in tumor mass
cell proliferation / cell growth inhibition (in words) ([5]; H82, day 3 and day 6, text on figures): dose-dependent decrease in cell proliferation
IC50 ([5]; NCI-H82, 72 h, H82, day 3 in culture, read-out: IC50 Day 3): 314 ± 205 µM
IC50 ([5]; NCI-H82, 144 h, H82, day 6 in culture, read-out: IC50 Day 6): 218 ± 76 µM
IC50 (PC3; PC-3, 72 h, PC3, day 3, read-out: IC50 Day 3): > 700 µM
IC50 (PC3; PC-3, 144 h, PC3, day 6, read-out: IC50 Day 6): 176 ± 29 µM
